Test results published in US8344009B2, “Substituted phenoxy thiazolidinediones as estrogen related receptor-á modulators” (priority 2007, dated 2013).

Target: T1, ERR1 (also known as ERR-α or ERR-1) (Homo sapiens, UniProt P11474)
T1 sequence (P11474 193-421 limits assumed): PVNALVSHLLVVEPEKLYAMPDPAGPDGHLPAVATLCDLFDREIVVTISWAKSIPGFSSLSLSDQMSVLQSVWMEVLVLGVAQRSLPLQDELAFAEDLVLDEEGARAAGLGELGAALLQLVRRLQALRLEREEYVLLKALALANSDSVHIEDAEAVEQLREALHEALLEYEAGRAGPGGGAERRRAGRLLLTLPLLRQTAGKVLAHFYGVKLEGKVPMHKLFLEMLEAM
Test: TR-FRET assay (disruption of co-activator peptide binding to ERR1 LBD)
Type: biochemical
Settings: not given
Method: Time-Resolved Fluorescence Resonance Energy Transfer (TR-FRET) experiments were performed to examine the functional response of ERR1 (also known as ERR-α or ERR-1) ligands. The TR-FRET assay described herein relied on the conformation of ERR1 for binding to a co-activator peptide: when a test compound binds to ERR1 and alters its conformation, it can disrupt the binding of the co-activator peptide. The components of this homogeneous secondary assay included: the ^6His-tagged-ERR1LBD, a GST-labeled-hSRC2 co-activator polypeptide and a fluorescent donor/acceptor pair from CIS bio international htrf/bioassays (Bedford, Mass.) using both an α-GST Europium Cryptate (Eu) label and an α^6His-XL665 (allophycocyanin) fluorophore.
Reactions were allowed to reach equilibrium at 25° C. for 4-18 hours before collecting data on the Analyst from LJL Biosystems (Molecular Devices Sunnyvale, Calif.). […] Dose response curves were fitted using a hyperbolic equation and the data reported is the average of 3 independent experiments.

Structure (SMILES)	EC50
COC(=O)c1cc(C(F)(F)F)ccc1Oc1ccc(/C=C2\SC(=O)NC2=O)cc1OC [Compound 9, 2-[4-(2,4-Dioxo-thiazolidin-5-ylidenemethyl)-2-methoxy-phenoxy]-5-trifluoromethyl-benzoic acid methyl ester]	480 nM
COc1cc(/C=C2\SC(=O)NC2=O)ccc1Oc1ccc(C(F)(F)F)cc1C#N [Compound 8, 2-[4-(2,4-Dioxo-thiazolidin-5-ylidenemethyl)-2-methoxy-phenoxy]-5-trifluoromethyl-benzonitrile]	550 nM
COc1cc(/C=C2\SC(=O)NC2=O)ccc1Oc1ccc(C(F)(F)F)cc1Cl [Compound 2, 5-[4-(2-Chloro-4-trifluoromethyl-phenoxy)-3-methoxy-benzylidene]-thiazolidine-2,4-dione]	130 nM
COC(=O)c1ccc(Oc2ccc(/C=C3\SC(=O)NC3=O)cc2OC)c(C(F)(F)F)c1 [Compound 10, 4-[4-(2,4-Dioxo-thiazolidin-5-ylidenemethyl)-2-methoxy-phenoxy]-3-trifluoromethyl-benzoic acid methyl ester]	12 nM
COc1cc(/C=C2\SC(=O)NC2=O)ccc1Oc1ccc(C#N)c2ccccc12 [Compound 19, 4-[4-(2,4-Dioxothiazolidin-5-ylidenemethyl)-2-methoxyphenoxy]naphthalene-1-carbonitrile]	120 nM
COC(=O)c1ccc(Oc2ccc(/C=C3\SC(=O)NC3=O)cc2OC)c2ccccc12 [Compound 24]	1 nM

Next, values leading:

EC50	Structure (SMILES)
480 nM	COc1cc(/C=C2\SC(=O)NC2=O)ccc1Oc1ccc(C#N)cc1Br [Compound 22, 3-Bromo-4-[4-(2,4-dioxothiazolidin-5-ylidenemethyl)-2-methoxyphenoxy]benzonitrile]
380 nM	COc1cc(/C=C2\SC(=O)NC2=O)ccc1Oc1ccc(C(F)(F)F)cc1Br [Compound 20, 5-[4-(2-Bromo-4-trifluoromethylphenoxy)-3-methoxybenzylidene]thiazolidine-2,4-dione]
430 nM	COc1cc(/C=C2\SC(=O)NC2=O)ccc1Oc1ccc(C#N)cc1Cl [Compound 21, 3-Chloro-4-[4-(2,4-dioxothiazolidin-5-ylidenemethyl)-2-methoxyphenoxy]benzonitrile]

Same assay, conditions: average of 3 independent experiments; read-out: TR-FRET EC50

Structure (SMILES)	EC50
COc1cc(/C=C2\SC(=O)NC2=O)ccc1Oc1ccc(Br)cc1C(F)(F)F [Compound 5, 5-[4-(4-Bromo-2-trifluoromethyl-phenoxy)-3-methoxy-benzylidene]-thiazolidine-2,4-dione]	570 nM
COc1cc(/C=C2\SC(=O)NC2=O)ccc1Oc1ccc(S(C)(=O)=O)cc1Cl [Compound 4, 5-[4-(2-Chloro-4-methanesulfonyl-phenoxy)-3-methoxy-benzylidene]-thiazolidine-2,4-dione]	550 nM
N#Cc1ccc(Oc2ccc(/C=C3\SC(=O)NC3=O)cc2OC(F)(F)F)c(C(F)(F)F)c1 [Compound 29, 4-[4-(2,4-Dioxo-thiazolidin-5-ylidenemethyl)-2-trifluoromethoxy-phenoxy]-3-trifluoromethyl-benzonitrile]	180 nM
O=C1NC(=O)/C(=C/c2ccc(Oc3ccc(Cl)cc3C(F)(F)F)c(F)c2)S1 [Compound 31, 5-[4-(4-Chloro-2-trifluoromethyl-phenoxy)-3-fluoro-benzylidene]thiazolidine-2,4-dione]	33 nM
CCOc1cc(/C=C2\SC(=O)NC2=O)ccc1Oc1ccc(C#N)c2ccccc12 [Compound 15, 4-[4-(2,4-Dioxo-thiazolidin-5-ylidenemethyl)-2-ethoxy-phenoxy]-naphthalene-1-carbonitrile]	37 nM
N#Cc1ccc(Oc2ccc(/C=C3\SC(=O)NC3=O)cc2Br)c(C(F)(F)F)c1 [Compound 16, 4-[2-Bromo-4-(2,4-dioxo-thiazolidin-5-ylidenemethyl)-phenoxy]-3-trifluoromethyl-benzonitrile]	600 nM
COc1cc(/C=C2\SC(=O)NC2=O)ccc1Oc1ccc(S(C)(=O)=O)cc1Br [Compound 3, 5-[4-(2-Bromo-4-methanesulfonyl-phenoxy)-3-methoxy-benzylidene]-thiazolidine-2,4-dione]	1030 nM
COc1cc(/C=C2\SC(=O)NC2=O)ccc1Oc1ccc(Cl)cc1C(F)(F)F [Compound 30, 5-[4-(4-Chloro-2-trifluoromethyl-phenoxy)-3-methoxy-benzylidene]-thiazolidine-2,4-dione]	8 nM
Cc1cc(/C=C2\SC(=O)NC2=O)ccc1Oc1ccc(C#N)cc1C(F)(F)F [Compound 14, 4-[4-(2,4-Dioxo-thiazolidin-5-ylidenemethyl)-2-methyl-phenoxy]-3-trifluoromethyl-benzonitrile]	200 nM
N#Cc1ccc(Oc2ccc(/C=C3\SC(=O)NC3=O)cc2Cl)c(C(F)(F)F)c1 [Compound 18, 4-[2-Chloro-4-(2,4-dioxo-thiazolidin-5-ylidenemethyl)-phenoxy]-3-trifluoromethyl-benzonitrile]	520 nM
Cc1cc(/C=C2\SC(=O)NC2=O)ccc1Oc1ccc(C#N)c2ccccc12 [Compound 11, 4-[4-(2,4-Dioxo-thiazolidin-5-ylidenemethyl)-2-methyl-phenoxy]-naphthalene-1-carbonitrile]	480 nM
COc1cc(/C=C2\OC(=O)NC2=O)ccc1Oc1ccc(C#N)c2ccccc12 [Compound 23, 4-[4-(2,4-Dioxo-oxazolidin-5-ylidenemethyl)-2-methoxy-phenoxy]-naphthalene-1-carbonitrile]	480 nM
Cc1cc(/C=C2\SC(=O)NC2=O)ccc1Oc1ccc(C(N)=O)cc1C(F)(F)F [Compound 28, 4-[4-(2,4-Dioxo-thiazolidin-5-ylidenemethyl)-2-methyl-phenoxy]-3-trifluoromethyl-benzamide]	440 nM

Continued, values first:

EC50	Structure (SMILES)
180 nM	CCOc1cc(/C=C2\SC(=O)NC2=O)ccc1Oc1ccc(C#N)cc1C(F)(F)F [Compound 13, 4-[4-(2,4-Dioxo-thiazolidin-5-ylidenemethyl)-2-ethoxy-phenoxy]-3-trifluoromethyl-benzonitrile]
100 nM	N#Cc1ccc(Oc2ccc(/C=C3\SC(=O)NC3=O)cc2F)c2ccccc12 [Compound 17, 4-[4-(2,4-Dioxo-thiazolidin-5-ylidenemethyl)-2-fluoro-phenoxy]-naphthalene-1-carbonitrile]
150 nM	N#Cc1ccc(Oc2ccc(/C=C3\SC(=O)NC3=O)cc2F)c(C(F)(F)F)c1 [Compound 12, 4-[4-(2,4-Dioxo-thiazolidin-5-ylidenemethyl)-2-fluoro-phenoxy]-3-trifluoromethyl-benzonitrile]
510 nM	COc1cc(/C=C2\SC(=O)NC2=O)ccc1Oc1ccc(C(N)=O)cc1C(F)(F)F [Compound 6, 4-[4-(2,4-Dioxo-thiazolidin-5-ylidenemethyl)-2-methoxy-phenoxy]-3-trifluoromethyl-benzamide]
1000 nM	N#Cc1ccc(Oc2ccc(/C=C3\SC(=O)NC3=O)cc2C(F)(F)F)c(C(F)(F)F)c1 [Compound 26, 4-[4-(2,4-Dioxo-thiazolidin-5-ylidenemethyl)-2-trifluoromethyl-phenoxy]-3-trifluoromethyl-benzonitrile]
330 nM	CCOc1cc(/C=C2\SC(=O)NC2=O)ccc1Oc1ccc(C(N)=O)cc1C(F)(F)F [Compound 27, 4-[4-(2,4-Dioxo-thiazolidin-5-ylidenemethyl)-2-ethoxy-phenoxy]-3-trifluoromethyl-benzamide]
